The supplement of paper PMC12463676, “Small-molecule dissolution of stress granules by redox modulation benefits ALS models” (Nature Chemical Biology, 2025)

What was measured:
potassium arsenate = compound: O=[As]([O-])(O)O.[K+] [potassium arsenate]; experiment: thermal stability z-score vs DMSO; higher = more thermally stabilized by treatment; details: HeLa; arsenate concentration 1 mM
Description: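 Cellular thermal proteome profiling in HeLa cells treated with 1 mM arsenate for 1 h (DMSO pretreatment), heated to ten temperatures (37-66.3 °C). Soluble protein was quantified by TMT mass spectrometry relative to DMSO controls; the thermal stability score was transformed to a z-score; mean of n = 3 experiments.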

lipoamide = compound: NC(=O)CCCCC1CCSS1 [lipoamide]; experiment: as above; details: HeLa, lipoamide concentration 100 µM
Description: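 Cellular thermal proteome profiling in HeLa cells. Cells were treated with 100 µM lipoamide for 1 h, with or without 1 mM arsenate for a further 1 h, then heated to ten temperatures (37-66.3 °C), and soluble protein was quantified by TMT mass spectrometry relative to 0.1% DMSO controls. The thermal stability score (sum of log2 fold changes minus the abundance score) was transformed to a z-score; mean of n = 3 experiments.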

[1] = arsenate co-treatment: 1 mM arsenate 1 h
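Note: each temperature applied for 3 min, abundance score taken as mean log2 fold change at the two lowest temperatures, z-score obtained by mean subtraction and division by SD.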

Chain of UniProt Q9Y3B8 (Q9Y3B8 whole entry): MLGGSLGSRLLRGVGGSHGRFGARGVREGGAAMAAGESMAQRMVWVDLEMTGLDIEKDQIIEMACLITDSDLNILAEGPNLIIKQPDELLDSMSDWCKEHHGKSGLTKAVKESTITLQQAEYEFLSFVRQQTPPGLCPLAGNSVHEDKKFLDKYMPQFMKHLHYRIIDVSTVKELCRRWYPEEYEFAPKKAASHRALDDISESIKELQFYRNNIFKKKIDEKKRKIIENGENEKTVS
Chain of UniProt Q8N370 (Q8N370 whole entry, looked up): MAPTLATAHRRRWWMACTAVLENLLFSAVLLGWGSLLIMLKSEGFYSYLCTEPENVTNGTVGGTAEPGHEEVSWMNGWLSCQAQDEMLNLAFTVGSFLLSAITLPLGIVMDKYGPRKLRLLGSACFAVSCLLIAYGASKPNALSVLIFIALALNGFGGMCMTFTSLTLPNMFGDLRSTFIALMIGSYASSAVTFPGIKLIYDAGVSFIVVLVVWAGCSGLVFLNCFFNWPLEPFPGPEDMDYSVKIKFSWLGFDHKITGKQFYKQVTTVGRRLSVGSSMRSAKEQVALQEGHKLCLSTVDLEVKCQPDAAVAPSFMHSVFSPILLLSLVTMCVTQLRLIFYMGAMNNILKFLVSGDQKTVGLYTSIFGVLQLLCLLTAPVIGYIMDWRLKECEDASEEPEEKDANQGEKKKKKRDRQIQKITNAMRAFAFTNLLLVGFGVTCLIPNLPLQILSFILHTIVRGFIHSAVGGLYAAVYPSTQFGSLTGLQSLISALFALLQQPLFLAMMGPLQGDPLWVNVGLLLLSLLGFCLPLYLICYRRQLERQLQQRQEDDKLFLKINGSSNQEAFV
Chain of UniProt Q9Y295 (Q9Y295 whole entry): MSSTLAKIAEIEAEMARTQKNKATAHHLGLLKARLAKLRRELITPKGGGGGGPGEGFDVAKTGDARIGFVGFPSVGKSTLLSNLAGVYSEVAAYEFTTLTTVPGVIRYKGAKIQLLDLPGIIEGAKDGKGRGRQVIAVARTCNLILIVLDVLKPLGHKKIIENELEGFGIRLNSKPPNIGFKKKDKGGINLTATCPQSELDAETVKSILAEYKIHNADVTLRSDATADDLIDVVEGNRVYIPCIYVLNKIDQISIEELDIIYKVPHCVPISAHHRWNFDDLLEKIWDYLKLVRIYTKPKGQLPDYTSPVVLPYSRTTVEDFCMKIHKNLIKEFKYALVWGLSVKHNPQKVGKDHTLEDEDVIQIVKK
Chain of UniProt Q562E7 (Q562E7 whole entry): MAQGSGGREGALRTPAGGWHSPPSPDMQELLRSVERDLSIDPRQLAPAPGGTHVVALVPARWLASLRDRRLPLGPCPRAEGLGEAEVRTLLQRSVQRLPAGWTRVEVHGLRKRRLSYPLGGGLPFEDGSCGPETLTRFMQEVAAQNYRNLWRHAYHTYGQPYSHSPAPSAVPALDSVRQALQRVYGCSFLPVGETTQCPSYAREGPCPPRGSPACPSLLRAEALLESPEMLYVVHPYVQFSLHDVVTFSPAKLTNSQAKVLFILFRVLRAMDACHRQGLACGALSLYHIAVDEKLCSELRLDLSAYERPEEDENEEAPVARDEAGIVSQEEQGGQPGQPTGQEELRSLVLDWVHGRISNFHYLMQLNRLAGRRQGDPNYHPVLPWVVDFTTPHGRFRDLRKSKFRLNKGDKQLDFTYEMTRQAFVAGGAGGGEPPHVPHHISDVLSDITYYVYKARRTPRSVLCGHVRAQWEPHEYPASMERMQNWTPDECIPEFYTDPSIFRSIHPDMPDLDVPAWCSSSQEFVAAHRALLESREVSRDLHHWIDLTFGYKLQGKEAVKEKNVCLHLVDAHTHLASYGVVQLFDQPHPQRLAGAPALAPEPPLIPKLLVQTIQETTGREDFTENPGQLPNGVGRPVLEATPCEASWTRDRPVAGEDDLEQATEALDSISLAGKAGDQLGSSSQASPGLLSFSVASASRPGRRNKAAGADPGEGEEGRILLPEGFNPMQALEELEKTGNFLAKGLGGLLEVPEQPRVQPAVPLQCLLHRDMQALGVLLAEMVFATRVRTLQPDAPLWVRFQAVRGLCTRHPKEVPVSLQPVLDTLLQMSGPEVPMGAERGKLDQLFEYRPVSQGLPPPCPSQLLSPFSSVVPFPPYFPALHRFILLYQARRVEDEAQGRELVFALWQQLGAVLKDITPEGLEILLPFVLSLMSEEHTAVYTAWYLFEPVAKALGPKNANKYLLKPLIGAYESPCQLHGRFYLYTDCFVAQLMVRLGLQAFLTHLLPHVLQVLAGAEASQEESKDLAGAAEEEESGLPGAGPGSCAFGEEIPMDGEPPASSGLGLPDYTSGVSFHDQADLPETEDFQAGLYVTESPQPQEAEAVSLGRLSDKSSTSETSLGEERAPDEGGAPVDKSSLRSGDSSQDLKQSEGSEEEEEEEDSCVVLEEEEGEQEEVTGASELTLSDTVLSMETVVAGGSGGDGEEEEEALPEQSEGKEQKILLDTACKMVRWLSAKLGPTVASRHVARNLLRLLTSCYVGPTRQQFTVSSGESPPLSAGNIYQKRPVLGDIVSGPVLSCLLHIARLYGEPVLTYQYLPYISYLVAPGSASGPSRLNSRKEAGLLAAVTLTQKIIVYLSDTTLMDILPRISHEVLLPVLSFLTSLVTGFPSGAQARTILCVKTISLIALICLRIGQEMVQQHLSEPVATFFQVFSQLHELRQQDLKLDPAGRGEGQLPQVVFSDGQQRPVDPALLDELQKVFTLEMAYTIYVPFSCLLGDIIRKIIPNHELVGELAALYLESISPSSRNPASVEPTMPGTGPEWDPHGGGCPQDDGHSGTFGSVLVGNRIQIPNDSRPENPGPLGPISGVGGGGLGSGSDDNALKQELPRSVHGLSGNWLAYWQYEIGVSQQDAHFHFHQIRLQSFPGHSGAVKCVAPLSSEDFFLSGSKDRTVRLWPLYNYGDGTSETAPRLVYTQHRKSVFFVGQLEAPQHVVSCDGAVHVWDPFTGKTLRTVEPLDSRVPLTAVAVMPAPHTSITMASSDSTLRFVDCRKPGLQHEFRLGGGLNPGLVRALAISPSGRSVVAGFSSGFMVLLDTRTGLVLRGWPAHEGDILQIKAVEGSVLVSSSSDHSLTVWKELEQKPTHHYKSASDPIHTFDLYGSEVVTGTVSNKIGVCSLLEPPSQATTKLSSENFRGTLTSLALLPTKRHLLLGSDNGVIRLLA
Chain of UniProt Q9H1X3 (Q9H1X3 whole entry): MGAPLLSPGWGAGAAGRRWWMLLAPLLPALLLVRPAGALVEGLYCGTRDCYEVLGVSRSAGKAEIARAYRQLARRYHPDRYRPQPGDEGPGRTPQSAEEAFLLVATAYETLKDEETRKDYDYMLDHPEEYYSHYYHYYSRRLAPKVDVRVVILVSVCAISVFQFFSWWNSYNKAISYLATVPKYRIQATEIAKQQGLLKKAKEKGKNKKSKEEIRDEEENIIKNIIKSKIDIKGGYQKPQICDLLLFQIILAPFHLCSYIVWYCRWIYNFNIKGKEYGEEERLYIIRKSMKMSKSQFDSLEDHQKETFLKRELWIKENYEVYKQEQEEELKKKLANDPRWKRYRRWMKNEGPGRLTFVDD
Chain of UniProt Q96B54 (Q96B54 whole entry): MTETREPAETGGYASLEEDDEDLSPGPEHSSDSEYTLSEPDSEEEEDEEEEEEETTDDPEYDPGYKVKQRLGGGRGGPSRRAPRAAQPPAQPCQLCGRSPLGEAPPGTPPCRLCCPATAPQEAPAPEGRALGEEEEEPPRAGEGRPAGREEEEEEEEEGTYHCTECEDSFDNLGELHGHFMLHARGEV
Chain of UniProt Q9H1C4 (Q9H1C4 whole entry): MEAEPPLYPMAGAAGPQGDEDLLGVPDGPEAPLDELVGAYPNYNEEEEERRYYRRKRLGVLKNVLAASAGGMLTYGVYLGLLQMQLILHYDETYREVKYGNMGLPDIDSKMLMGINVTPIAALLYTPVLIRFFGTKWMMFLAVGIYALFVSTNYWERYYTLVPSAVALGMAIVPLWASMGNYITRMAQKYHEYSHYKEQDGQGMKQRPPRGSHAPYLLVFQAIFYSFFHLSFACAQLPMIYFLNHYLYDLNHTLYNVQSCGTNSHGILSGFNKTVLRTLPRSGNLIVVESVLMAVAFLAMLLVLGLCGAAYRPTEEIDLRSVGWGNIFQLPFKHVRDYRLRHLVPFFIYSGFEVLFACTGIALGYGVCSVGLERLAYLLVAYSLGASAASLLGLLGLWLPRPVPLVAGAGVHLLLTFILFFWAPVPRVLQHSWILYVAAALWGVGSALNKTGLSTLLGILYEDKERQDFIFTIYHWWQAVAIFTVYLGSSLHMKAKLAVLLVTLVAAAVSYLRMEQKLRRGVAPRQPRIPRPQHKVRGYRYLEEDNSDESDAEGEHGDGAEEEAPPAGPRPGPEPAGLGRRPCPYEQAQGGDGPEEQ
Chain of UniProt Q8WXI9 (Q8WXI9 whole entry): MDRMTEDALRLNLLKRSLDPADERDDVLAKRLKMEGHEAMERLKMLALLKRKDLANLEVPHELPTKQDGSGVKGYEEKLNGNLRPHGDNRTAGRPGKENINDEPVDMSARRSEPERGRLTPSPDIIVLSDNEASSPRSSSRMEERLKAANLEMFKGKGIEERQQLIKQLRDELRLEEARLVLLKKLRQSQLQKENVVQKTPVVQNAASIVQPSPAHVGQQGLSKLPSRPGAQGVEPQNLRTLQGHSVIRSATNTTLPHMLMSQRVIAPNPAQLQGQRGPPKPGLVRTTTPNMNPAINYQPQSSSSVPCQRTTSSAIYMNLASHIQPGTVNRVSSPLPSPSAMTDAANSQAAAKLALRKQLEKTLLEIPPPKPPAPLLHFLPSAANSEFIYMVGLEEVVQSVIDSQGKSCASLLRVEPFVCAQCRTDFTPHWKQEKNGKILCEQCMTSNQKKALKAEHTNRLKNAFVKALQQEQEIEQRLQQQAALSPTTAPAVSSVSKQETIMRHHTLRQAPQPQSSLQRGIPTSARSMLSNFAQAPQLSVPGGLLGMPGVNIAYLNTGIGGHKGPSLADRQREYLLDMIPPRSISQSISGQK
Chain of UniProt Q9BTX3 (Q9BTX3 whole entry): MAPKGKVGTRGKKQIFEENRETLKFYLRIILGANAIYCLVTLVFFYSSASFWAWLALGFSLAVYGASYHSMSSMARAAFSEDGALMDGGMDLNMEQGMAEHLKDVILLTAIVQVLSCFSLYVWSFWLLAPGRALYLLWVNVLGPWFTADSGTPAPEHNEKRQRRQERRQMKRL

Target | thermal stability z-score (potassium arsenate) | thermal stability z-score (lipoamide; [1]) | thermal stability z-score (lipoamide; arsenate co-treatment: none)
PPP2R2D (UniProt Q66LE6) | 0.0879 | -0.473 | -0.0425
MP68 (UniProt P56378) | 1.15 | 0.962 | 0.921
RAD50 (UniProt Q92878) | -0.768 | 0.0652 | -0.163
LSM6 (UniProt P62312) | -0.309 | 0.895 | 0.267
DTX3L (UniProt Q8TDB6) | 0.176 | -0.78 | -0.366
DNAJC25 (UniProt Q9H1X3) | 0.282 | -1.46 | -0.0502
MRPL4 (UniProt Q9BYD3) | -0.138 | -0.319 | -0.59
ATP7A (UniProt Q04656) | -0.674 | -0.29 | -0.175
AMBRA1 (UniProt Q9C0C7) | 0.446 | 0.0433 | 0.0956
ARHGAP12 (UniProt Q8IWW6) | 0.668 | -0.578 | -0.344
ST3GAL4 (UniProt Q11206) | 0.726 | -0.112 | 0.0672
ARGLU1 (UniProt Q9NWB6) | -0.658 | 0.406 | 0.211
REXO2 (UniProt Q9Y3B8) | 0.192 | 0.295 | 0.536
PTAR1 (UniProt Q7Z6K3) | 0.1 | 0.548 | 0.408
C9ORF114 (UniProt Q5T280) | -0.288 | 0.288 | 0.265
CHAMP1 (UniProt Q96JM3) | -0.567 | -0.202 | -0.497
ZNF428 (UniProt Q96B54) | 1.85 | 1.64 | 2.65
SLC43A2 (UniProt Q8N370) | -1.03 | 0.846 | 1.05
HACL1 (UniProt Q9UJ83) | 0.107 | 0.259 | -0.331
NACC1 (UniProt Q96RE7) | -0.423 | -0.376 | -0.495
ITPR1 (UniProt Q14643) | -0.46 | -0.434 | -0.461
TRIM28 (UniProt Q13263) | -1.49 | -0.138 | 0.0166
CIC (UniProt Q96RK0) | -0.261 | 0.0454 | -0.131
TWF1 (UniProt Q12792) | -0.412 | 0.503 | 0.245
ATAD1 (UniProt Q8NBU5) | 0.641 | 0.216 | 0.454
SERPINI1 (UniProt Q99574) | 0.709 | -0.495 | 0.0132
TMEM208 (UniProt Q9BTX3) | -0.159 | 0.0799 | -0.132
BTAF1 (UniProt O14981) | -0.192 | 0.085 | 0.175

Target | thermal stability z-score (potassium arsenate) | thermal stability z-score (lipoamide; [1]) | thermal stability z-score (lipoamide; arsenate co-treatment: none)
DRG1 (UniProt Q9Y295) | 0.121 | -0.143 | -0.213
MTRF1L (UniProt Q9UGC7) | 0.646 | -1.57 | -0.343
LENG9 (UniProt Q96B70) | -0.307 | -0.216 | -0.193
GMEB2 (UniProt Q9UKD1) | 0.453 | 0.0462 | -0.00217
CD46 (UniProt P15529) | -0.443 | -0.681 | -0.571
GATAD2B (UniProt Q8WXI9) | -0.539 | 0.511 | 0.315
DNAJB14 (UniProt Q8TBM8) | -0.17 | 0.0418 | 0.157
KYAT3 (UniProt Q6YP21) | -0.182 | -0.0731 | 0.185
NEGR1 (UniProt Q7Z3B1) | -0.617 | 0.758 | -0.0845
FUS (UniProt P35637) | 0.635 | 0.844 | 1.27
SNF8 (UniProt Q96H20) | -0.156 | -0.129 | -0.418
TCF25 (UniProt Q9BQ70) | -0.542 | -0.802 | -0.429
UNC93B1 (UniProt Q9H1C4) | 0.487 | 0.172 | -0.000713
DAXX (UniProt Q9UER7) | -0.391 | -0.0224 | -0.149
GFER (UniProt P55789) | 0.816 | 0.239 | 0.231
LAMC1 (UniProt P11047) | 1.15 | -2.97 | -2.6
WDR81 (UniProt Q562E7) | 0.105 | -0.0547 | -0.0815
COTL1 (UniProt Q14019) | 0.699 | 0.575 | 1.02
USP36 (UniProt Q9P275) | -0.265 | 0.216 | -0.0229
HLA | -0.138 | -0.65 | -0.217
VCP (UniProt P55072) | -0.172 | 0.257 | 0.118
PPA2 (UniProt Q9H2U2) | -0.244 | -1.03 | -0.335
SRSF2 (UniProt Q01130) | -0.0469 | 0.414 | 0.274
HEL | -0.18 | -0.604 | -0.392
TXNDC12 (UniProt O95881) | 0.744 | -1.11 | -1.37
BNIP3 (UniProt Q12983) | 2.44 | 0.679 | 0.193
RRBP1 (UniProt Q9P2E9) | -0.458 | 0.226 | 0.25
